The source made the active and inactive calls. No cut-off for these calls is given here.

Series [1] concerns the target T1, Metabotropic glutamate receptor 2 (Rattus norvegicus, UniProt P31421). Kind of series: Antagonist activity at rat mGluR2 expressed in CHO cells assessed as inhibition of glutamta-induced GIRK current. Format: functional, cell-based.
The target in series [2] is T1, Metabotropic glutamate receptor 2. Description: Displacement of [3H]LY354740 from rat mGluR2.
The target is the same in series [3]. Kind of series: Antagonist activity at rat mGluR2 assessed as blockade of (1S,3R)-ACPD-induced inhibition of forskolin-stimulated cAMP production. In kind it is functional.
Series [4] in a line: Ratio of drug level in cerebrospinal fluid to plasma at 10 mg/kg, po after 1.5 hrs. Format: ADME, organism-based, CSF/Plasma. Also noted: dose 10 mg/kg, route oral. Particulars: rat.
Series [5] is described as follows: Binding affinity to ionotropic glutamate receptor.
Series [6] can be described thus: Drug level in rat brain at 10 mg/kg, po after 1.5 hrs. Format: ADME, organism-based. Also noted: dose 10 mg/kg, route oral. The following applies: read-out: Drug uptake.
The nature of series [7]: Ratio of drug level in brain to plasma at 10 mg/kg, po after 1.5 hrs. In kind it is ADME, organism-based. Details: dose 10 mg/kg, route oral. The following applies: rat.
Series [8] in a line: Plasma concentration in rat at 10 mg/kg, po after 1.5 hrs. Details: dose 10 mg/kg, route oral. In kind it is ADME, organism-based.
The target of a further series is Cytochrome P450 3A4 (Homo sapiens, UniProt P08684). Description: Inhibition of CYP3A4. Format: ADME.
Chain of Cytochrome P450 3A4 (P08684 whole entry): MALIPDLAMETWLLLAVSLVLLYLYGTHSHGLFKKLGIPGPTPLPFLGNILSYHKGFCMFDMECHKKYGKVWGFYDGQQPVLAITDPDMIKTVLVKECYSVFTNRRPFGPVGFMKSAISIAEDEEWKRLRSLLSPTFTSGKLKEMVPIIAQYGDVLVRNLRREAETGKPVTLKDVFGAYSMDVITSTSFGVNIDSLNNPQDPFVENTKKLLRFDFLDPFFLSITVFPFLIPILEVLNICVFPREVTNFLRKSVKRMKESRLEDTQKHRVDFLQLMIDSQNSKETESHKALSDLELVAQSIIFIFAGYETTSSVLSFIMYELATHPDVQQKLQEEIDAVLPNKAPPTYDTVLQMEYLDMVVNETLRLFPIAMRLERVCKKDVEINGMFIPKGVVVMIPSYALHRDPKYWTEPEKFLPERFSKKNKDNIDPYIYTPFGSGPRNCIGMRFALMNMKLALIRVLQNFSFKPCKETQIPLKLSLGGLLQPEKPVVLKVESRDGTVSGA
Series [9] in a line: Binding affinity to GABAA receptor.
In series [10] the target is Metabotropic glutamate receptor 3 (Rattus norvegicus, UniProt P31422). Description: Antagonist activity at rat mGluR3 expressed in CHO cells assessed as inhibition of glutamate-induced GIRK current. In kind it is functional, cell-based.
Chain of Metabotropic glutamate receptor 3 (P31422 whole entry): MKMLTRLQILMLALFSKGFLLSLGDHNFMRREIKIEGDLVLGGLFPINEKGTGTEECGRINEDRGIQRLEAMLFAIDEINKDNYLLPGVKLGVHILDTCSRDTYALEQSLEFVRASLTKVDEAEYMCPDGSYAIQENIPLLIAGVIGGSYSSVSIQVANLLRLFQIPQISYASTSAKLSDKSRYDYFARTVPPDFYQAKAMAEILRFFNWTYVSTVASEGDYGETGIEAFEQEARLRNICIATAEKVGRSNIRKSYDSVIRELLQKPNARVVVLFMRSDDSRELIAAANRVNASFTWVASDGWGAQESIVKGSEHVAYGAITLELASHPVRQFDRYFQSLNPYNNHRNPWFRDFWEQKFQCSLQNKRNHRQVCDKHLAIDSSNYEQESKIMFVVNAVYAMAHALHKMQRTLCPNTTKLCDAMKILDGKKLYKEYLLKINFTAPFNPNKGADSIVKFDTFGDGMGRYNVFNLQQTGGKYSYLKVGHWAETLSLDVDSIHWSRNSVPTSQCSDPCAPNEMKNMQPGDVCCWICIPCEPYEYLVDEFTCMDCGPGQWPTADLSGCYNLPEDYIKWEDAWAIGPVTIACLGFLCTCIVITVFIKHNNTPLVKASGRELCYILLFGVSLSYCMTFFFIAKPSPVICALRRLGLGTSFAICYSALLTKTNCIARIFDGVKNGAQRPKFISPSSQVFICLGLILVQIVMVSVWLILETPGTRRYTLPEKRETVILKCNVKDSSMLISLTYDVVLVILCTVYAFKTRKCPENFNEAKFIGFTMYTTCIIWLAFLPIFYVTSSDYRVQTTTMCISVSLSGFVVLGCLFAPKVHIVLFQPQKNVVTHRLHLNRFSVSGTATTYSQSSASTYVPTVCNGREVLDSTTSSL
For the next series, the system named is Mus musculus. Kind of series: Spontaneous locomotor activity in po dosed C57BL/6J mouse assessed as reversal of LY-354740-induced hypoactivity. Format: functional.
Series [11] in a line: Clearance in rat microsomes. In kind it is ADME, Liver, Microsome.

T1 sequence (P31421 whole entry): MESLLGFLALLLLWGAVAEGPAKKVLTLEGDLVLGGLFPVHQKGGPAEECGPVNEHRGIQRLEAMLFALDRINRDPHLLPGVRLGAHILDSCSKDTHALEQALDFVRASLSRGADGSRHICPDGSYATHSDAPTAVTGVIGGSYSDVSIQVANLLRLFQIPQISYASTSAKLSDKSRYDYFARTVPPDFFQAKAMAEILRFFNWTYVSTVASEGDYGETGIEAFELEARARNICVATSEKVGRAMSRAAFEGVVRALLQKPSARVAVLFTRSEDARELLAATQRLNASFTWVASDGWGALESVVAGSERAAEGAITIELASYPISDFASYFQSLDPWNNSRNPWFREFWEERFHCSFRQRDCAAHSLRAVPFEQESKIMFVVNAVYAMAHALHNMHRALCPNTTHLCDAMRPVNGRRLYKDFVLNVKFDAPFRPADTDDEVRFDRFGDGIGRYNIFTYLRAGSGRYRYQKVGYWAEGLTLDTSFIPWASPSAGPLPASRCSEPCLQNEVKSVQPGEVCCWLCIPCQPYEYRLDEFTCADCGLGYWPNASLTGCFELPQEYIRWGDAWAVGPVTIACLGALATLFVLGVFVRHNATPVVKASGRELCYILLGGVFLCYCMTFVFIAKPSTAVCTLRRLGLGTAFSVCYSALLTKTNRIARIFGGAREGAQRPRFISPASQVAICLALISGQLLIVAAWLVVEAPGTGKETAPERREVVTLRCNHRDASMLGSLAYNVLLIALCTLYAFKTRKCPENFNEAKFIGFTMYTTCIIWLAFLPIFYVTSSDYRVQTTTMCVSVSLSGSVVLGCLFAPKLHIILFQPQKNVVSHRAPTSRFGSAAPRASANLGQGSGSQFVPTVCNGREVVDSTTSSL

As for `O=C1CC(c2cccc(-n3ccnc3)c2)=Nc2cc(O)c(C#Cc3ccc(F)cc3)cc2N1`, the IC50 in [1] was determined as 24 nM.
In the case of `O=C1CC(c2cccc(-n3ccnn3)c2)=Nc2cc(Cl)c(C(F)(F)F)cc2N1`, the 50% inhibitory concentration (IC50) in series [2] was 27 nM; in series [3], 116 nM.
Regarding `O=C1CC(c2cccc(-n3ccnn3)c2)=Nc2ccc(-c3cc(F)ccc3F)cc2N1`, the figures for the IC50 in series [2] and in series [3] were 17 nM and 18 nM, respectively.
The like results for `O=C1CC(c2cccc(-n3ccnc3)c2)=Nc2cc(Cl)c(C(F)(F)F)cc2N1` were, in that order, 17 nM and 15 nM.
Take `O=C1CC(c2cccc(-n3ccnn3)c2)=Nc2ccc(-c3ccccc3F)cc2N1`: the values for the Kp at 1.5 h in series [4] and in series [7] were 0.5 and 0.9, respectively. The result in [5] and in [9] was inactive. Further, the concentration at 1.5 h in [6] turned out to be 1060 ng/mL; in [8] it was 1420 ng/mL. The IC50 turned out to be 16 nM in series [2]; 4300 nM against Cytochrome P450 3A4; 42 nM in series [10]; 37 nM in series [3]; 22 nM in series [1]. Besides, the 50% effective dose (ED50) in the series with Mus musculus turned out to be 3.3 mg/kg.
In the case of `O=C1CC(c2cccc(-n3ccnc3)c2)=Nc2ccc(-c3ccccc3F)cc2N1`, the concentration at 1.5 h in [6] is 1340 ng/mL; in series [8] it was 2660 ng/mL. Moreover, the half-maximal inhibitory concentration (IC50) in series [2] worked out at 12 nM; in series [10], 33 nM; in series [3], 27 nM; in [1], 11 nM. Further, the Kp at 1.5 h in series [7] turned out to be 0.5. Besides, in the series on Mus musculus, the ED50 came out at 12.5 mg/kg.
As for `O=C1CC(c2cccc(-n3ccnc3)c2)=Nc2ccc(-c3ccc(F)cc3)cc2N1`, the IC50 in series [2] was found to be 17 nM; in series [10] it was 17 nM; in [3], 24 nM; in [1], 299 nM.
In the case of `O=C1CC(c2cccc(-n3ccnc3)c2)=Nc2ccc(-c3ccccc3)cc2N1`, the concentration for half-maximal inhibition (IC50) was found to be 39 nM in series [2] and 47 nM in series [3].
`O=C1CC(c2cccc(-n3ccnn3)c2)=Nc2ccc(C(F)(F)F)cc2N1` showed a half-inhibitory concentration (IC50) in [2] of 92 nM.
The same measure, in the same setting: for `O=C1CC(c2cccc(-n3ccnn3)c2)=Nc2ccc(Cl)cc2N1` the value was 60 nM.
As to `CC(C)CNc1cc2c(cc1C(F)(F)F)NC(=O)CC(c1cccc(-n3ccnn3)c1)=N2`, the IC50 in series [2] turned out to be 42 nM; in series [3] it was 268 nM.
The like results for `Cc1cc2c(cc1C(F)(F)F)NC(=O)CC(c1cccc(-n3ccnc3)c1)=N2` were, in that order, 12 nM and 19 nM.
The matching figures for `CN(C)c1cc2c(cc1C(F)(F)F)NC(=O)CC(c1cccc(-n3ccnn3)c1)=N2`: 38 nM and 184 nM.
For `CC(C)CNc1cc2c(cc1C(F)(F)F)NC(=O)CC(c1cccc(-n3ccnc3)c1)=N2`, the IC50 in series [2] turned out to be 19 nM; in series [3] it was 73 nM.
For `O=C1CC(c2cccc(-n3ccnn3)c2)=Nc2ccc(Br)cc2N1`, the IC50 in series [2] stood at 130 nM.
Regarding `O=C1CC(c2cccc(-n3ccnc3)c2)=Nc2cc(O)c(-c3ccccc3F)cc2N1`, the IC50 in series [2] worked out at 22 nM; in series [10] it was 122 nM; in [1] it was 35 nM. The compound also gave a CLint scaled in series [11] of 100 mL/min/kg.
In turn, `O=C1CC(c2cccc(-n3ccnn3)c2)=Nc2ccc(C(F)F)cc2N1` displayed an IC50 in series [2] of 608 nM.
For the compound `CC(C)CN(C)c1cc2c(cc1C(F)(F)F)NC(=O)CC(c1cccc(-n3ccnn3)c1)=N2`, the values for the 50% inhibitory concentration (IC50) in [2] and in series [3] were 11 nM and 14 nM, respectively.
The matching figures for `O=C1CC(c2cccc(-n3ccnn3)c2)=Nc2ccc(-c3ccc(F)cc3)cc2N1`: 31 nM and 36 nM.
The matching figures for `COc1cc2c(cc1C(F)(F)F)NC(=O)CC(c1cccc(-n3ccnn3)c1)=N2`: 29 nM and 74 nM.
`O=C1CC(c2cccc(-n3ccnc3)c2)=Nc2ccc(C3CC3)cc2N1` came in with an IC50 in [2] of 210 nM.
Turning to `CN(C)c1cc2c(cc1C(F)(F)F)NC(=O)CC(c1cccc(-n3ccnc3)c1)=N2`, the IC50 was found to be 9 nM in [2] and 52 nM in series [3].
On to `Cc1cc2c(cc1C(F)(F)F)NC(=O)CC(c1cccc(-n3ccnn3)c1)=N2`, for which the IC50 in series [2] was 9 nM; in series [3], 39 nM.
Compound `O=C1CC(c2cccc(-n3ccnc3)c2)=Nc2ccc(-c3cccc(F)c3)cc2N1` displayed an IC50 in [2] of 25 nM.
As for `O=C1CC(c2cccc(-n3ccnc3)c2)=Nc2ccc(-c3cc(F)ccc3F)cc2N1`, the half-inhibitory concentration (IC50) stood at 7 nM in series [2] and 17 nM in series [3].
`CCc1cc2c(cc1C(F)(F)F)NC(=O)CC(c1cccc(-n3ccnc3)c1)=N2`: the IC50 amounted to 4 nM in series [2] and 10 nM in series [3].
`O=C1CC(c2cccc(-n3ccnn3)c2)=Nc2ccc(OCC(F)(F)F)cc2N1` registered an IC50 in series [2] of 70 nM.
Still for that read-out and setting: for `CC(C)c1ccc2c(c1)NC(=O)CC(c1cccc(-n3ccnn3)c1)=N2` the value was 466 nM.
The same measure, in the same setting: in the case of `O=C1CC(c2cccc(-n3ccnc3)c2)=Nc2ccc(Br)cc2N1` it was 72 nM.
Take `CCOc1cc2c(cc1C(F)(F)F)NC(=O)CC(c1cccc(-n3ccnn3)c1)=N2`: the IC50 in series [2] is 7 nM; in [3] it was 34 nM.
On to `O=C1CC(c2cccc(-n3ccnc3)c2)=Nc2ccc(C(F)(F)F)cc2N1`, for which, in [2], the IC50 is 43 nM.

As usually defined, the IC50 is the concentration that gives 50% inhibition. For orientation: Kp means tissue or fluid exposure divided by exposure in the circulation. What is called ED50 is the midpoint of the dose-response relation. The CLint scaled is a measure of how fast metabolising enzymes remove a compound, apart from limits set by blood flow. A lower CLint scaled goes with slow turnover.
